Legend:
[1] = Solubility in water and culture medium; assay type: physicochemical; conditions: physiological pH
[2] = prior art amino acid; cited from earlier work
[3] = Light-induced isomerization of Caf, analysis by UV-VIS spectroscopy; assay type: physicochemical; conditions: 30 μM aqueous solution; alternating UV and green LED irradiation over 3 cycles
Excerpt: The electronic transition π→π* is usually in the near UV region around 340 nm (Sension et al. 1993 J. Chem. Phys. 98: 6291-6315) whereas the electronic transition n→π* is usually located in the visible (VIS) region around 420 nm and is due to the presence of unshared electron pairs of the nitrogen atoms (Naegele et al. 1997 Chem. Phys. Lett. 272: 489-495). To examine whether the synthesized non-natural amino acid Caf (7) can respond to photoswitching induced by UV light, the compound was subjected to alternating irradiation cycles. In a typical experiment, 0.5 ml of a 30 μM aqueous solution was placed in a quartz cuvette with 1 cm optical pathlength. Then the sample was irradiated for 30 min from the top using a UV LED (NS355L-5RLO; Nitride Semiconductors, Tokushima, Japan) with 353 nm or a green LED (LL-504PGC2E-G5-2CC; Lucky Light Electronics, Hongkong, China) with 520 nm emitting wavelength. The change in intensity of the π-π* band at around 340 nm corresponding to the trans/cis isomerization (FIG. 4A) was monitored with a computer controlled photometer (Ultrospec 2100 pro, Amersham Biosciences).

[4] = Light-induced isomerization of Caf, analysis by HPLC; assay type: physicochemical; conditions: for isomer composition after irradiation with green light (HPLC): green LED light, λ=520 nm, after UV irradiation; for isomer composition before irradiation (HPLC): ground state, prior to irradiation
Protocol: 500 μl of a 60 μM solution of Caf (7) in water was placed in a 1.5 ml HPLC vial (Screw neck vial N9, amber glass, 11.6×32 mm; Macherey Nagel, Duren, Germany) and irradiated with a UV LED (λ=353 nm, NS355L-5RLO; Nitride Semiconductors, Tokushima, Japan) for 30 min directly from the top. Before and after irradiation, a 20 μl sample of the solution was withdrawn and analyzed by HPLC on a Purospher RP-8e 250×3 mm column (Merck), applying a concentration gradient of 10-12% acetonitrile (ACN) in 50 mM NH4OAc buffer pH 8 over 10 min (flow rate 0.6 ml/min). Another sample was analyzed in the same manner after irradiation with green LED light (λ=520 nm, LL-504PGC2E-G5-2CC, Lucky Light Electronics, Hongkong, China). […] The chromatograms reveal that the cis and trans isomers of (7) can be separated by HPLC (cis-(7) tR=3.6 min, trans-(7) tR=4.6 min). […] However, it should be taken into account that also during HPLC analysis reisomerization of cis-(7) to trans-(7) takes place, so the proportion of cis-(7) after irradiation with UV light might actually be higher than indicated by HPLC chromatograms. Thus, if the light-switchable polypeptide of the present invention is applied for an affinity chromatography procedure, and the trans configuration corresponds to the high affinity state whereas the cis configuration corresponds to the low affinity conformation, then the highest degree of binding and the highest degree of elution of the molecule of interest takes place at 430 nm and 330 nm, respectively. However, conventional light sources usually provide light having wavelengths that are around 530 nm (visible light) and 365 nm (UV light). Therefore, also light providing these wavelengths (i.e. around 530 nm and/or around 365 nm) may be used in accordance with the present invention.

Compound	solubility in water and LB culture medium [1]	solubility in water as well as culture media [2]	photoswitching between trans and cis configuration (absorbance at about 340 nm) [3]	isomer composition after irradiation with UV light (HPLC) ([4]; after irradiation with UV light)	proportion of cis-(7) ([4]; after irradiation with UV light for 30 min, 60 μM in water, HPLC at 286 nm)	isomer composition after irradiation with green light (HPLC) [4]	isomer composition after irradiation with green light (HPLC) ([4]; listed as 7)	isomer composition before irradiation (HPLC) [4]	isomer composition before irradiation (HPLC) ([4]; listed as 7)
N[C@@H](Cc1ccc(N=Nc2cccc(C(=O)O)c2)cc1)C(=O)O [3′-carboxyphenylazophenylalanine, 4-[(3-Carboxyphenyl)azo]-L-phenylalanine]	good solubility	–	–	–	–	–	–	–	–
N[C@@H](Cc1ccc(N=Nc2ccccc2)cc1)C(=O)O [AzoPhe]	–	extremely poor solubility	–	–	–	–	–	–	–
N[C@@H](Cc1ccc(N=Nc2ccc(C(=O)O)cc2)cc1)C(=O)O [Caf, 4-[(4-carboxyphenyl)azo]-L-phenylalanine]	good solubility	–	reversible photoswitching	mostly cis isomer	up to 86%	recovering the ground state	mostly trans isomer	only energetically favored trans-(7)	essentially pure trans isomer

Source: US20210079037A1, “LIGHT-SWITCHABLE POLYPEPTIDE AND USES THEREOF” (TECHNISCHE UNIVERSITÄT MÜNCHEN, priority 2017, published 2021)
